These results are taken from publication PMC7731220, “Pharmacophore Modeling and 3D-QSAR Study of Indole and Isatin Derivatives as Antiamyloidogenic Agents Targeting Alzheimer’s Disease” (Molecules, 2020).

Assay [1] concerns the target T1, Aβ40 (Homo sapiens, UniProt P05067). The following applies: cited from earlier work.
For another assay, the target named is T2, tau protein (Homo sapiens, UniProt P10636).
T2 construct: inclusions bodies (IBs) formed by tau full-length protein in bacteria; expressed in transfected cells; host or cells: Escherichia coli BL21 (DE3), plasmids pTARA and pRKT42
T2 sequence (P10636 other isoform, or with tags, fused parts or gaps): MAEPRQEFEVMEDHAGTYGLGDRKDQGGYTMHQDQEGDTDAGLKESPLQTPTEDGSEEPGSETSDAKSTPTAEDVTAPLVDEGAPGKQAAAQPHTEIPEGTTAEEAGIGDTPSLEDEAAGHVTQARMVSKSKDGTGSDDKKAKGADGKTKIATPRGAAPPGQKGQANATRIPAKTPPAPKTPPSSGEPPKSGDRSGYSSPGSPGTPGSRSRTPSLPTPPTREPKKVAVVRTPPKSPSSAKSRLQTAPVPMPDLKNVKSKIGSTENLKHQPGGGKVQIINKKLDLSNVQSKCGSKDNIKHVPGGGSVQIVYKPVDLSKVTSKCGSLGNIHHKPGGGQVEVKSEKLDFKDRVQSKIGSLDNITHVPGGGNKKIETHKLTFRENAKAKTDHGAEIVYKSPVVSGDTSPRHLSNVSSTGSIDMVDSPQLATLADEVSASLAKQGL
Kind of assay: Tau aggregation inhibition assay in bacterial cells (thioflavin S fluorescence). Format: cell-based, Escherichia coli BL21 (DE3). The following applies: for inhibition at 10 µM: cell-based assay. An excerpt:
The deposition of aggregates of hyperphosphorylated tau protein constitutes the intracellular neurofibrillary tangles, a major histological evidence of AD. The role of tau hyperphosphorylation and aggregation in AD has established both of them as a target for therapeutic intervention, although only N,N,N′,N′-tetramethyl-10H-phenothiazine-3,7-diaminium (TRX0237, leucomethyl-thioninium), the reduced form of methylene blue dye, acting as an inhibitor of tau aggregation, has reached the clinical phase III [26]. In recent years, some of us developed an efficient cell-based assay of tau aggregation, a simple and inexpensive method that provides a straightforward assay to evaluate the putative anti-aggregation capacity of small molecules. This method relies on the use of bacteria overexpressing amyloid-prone proteins to monitor the amyloid aggregation, thus constituting a physiologically relevant model. In particular, it exploits amyloid properties of the inclusions bodies (IBs) formed by tau full-length protein in bacteria stained by thioflavin S (ThS), a specific amyloid dye, to address the bacterial amyloid aggregation and the effect of anti-amyloid compounds in this polymerization process.
Escherichia coli competent cells BL21 (DE3) were transformed with pTARA containing the RNA-polymerase gen of T7 phage (T7RP) under the control of the promoter PBAD and pRKT42 vector encoding four repeats of tau protein in two inserts. Because of the addition of the initiation codon ATG in front of gene, the over-expressed protein contains an additional methionine residue at its N terminus. Tau anti-aggregating activities of the target compounds were assessed in E. coli cells, as previously described. M9 minimal medium (10 mL) containing 0.5% of glucose, 100 μg/mL of ampicillin and 12.5 μg/mL of chloramphenicol was inoculated with a colony of BL21 (DE3) cells bearing the plasmids. To fresh M9 minimal medium containing 0.5% of glucose, 50 μg/mL of ampicillin, 12.5 μg/mL of chloramphenicol, and 250 µM of ThS, the volume of overnight culture necessary to get a 1:500 dilution was added. The cultures were grown at 37 °C and 250 rpm overnight until cell density reached OD600 = 0.6. A volume of 980 μL of the cultures was transferred into 1.5 mL Eppendorf tubes that contained 10 μL of a solution of the target compound in DMSO and 10 μL of arabinose at 25%, leading to a final inhibitor concentration of 10 μM. The resulting cultures were grown at 37 °C and 1400 rpm with a Thermomixer (Eppendorf, Hamburg, Germany) overnight. The same amount of DMSO without the target compound was added to the sample as a negative control (maximal amount of tau), whereas non-induced samples (in the absence of arabinose) were prepared as positive controls (absence of tau), and to assess the potential intrinsic toxicity of the target compounds. In addition, the absorbance at 600 nm of these samples was assessed to confirm the correct bacterial growth, discarding potential intrinsic toxicity of compounds. To determine the IC50 values, the same protocol was followed but only modifying the initial concentration of compounds. In order to use different final concentrations of compound, we performed a dilutions banc from a stock solution of 100 mM in […].
ThS fluorescence and absorbance were tracked using a DTX 800 plate reader Multimode Detector equipped with a Multimode Analysis Software (Beckman-Coulter, Indianapolis, IN, USA). Filters of 430/35 and 485/20 nm were used for the excitation and emission wavelengths, respectively. 535/25 nm filters were also used for the absorbance determination. It should be stressed that ThS fluorescence normalization was carried out considering as 100% the ThS fluorescence of the bacterial cells expressing tau in the absence of compounds and 0% the ThS fluorescence of the bacterial cells non-expressing tau.

Another assay deals with T3, human recombinant AChE (Homo sapiens, UniProt P22303).
T3 construct: purchased Sigma Aldrich
T3 sequence (P22303 32-614): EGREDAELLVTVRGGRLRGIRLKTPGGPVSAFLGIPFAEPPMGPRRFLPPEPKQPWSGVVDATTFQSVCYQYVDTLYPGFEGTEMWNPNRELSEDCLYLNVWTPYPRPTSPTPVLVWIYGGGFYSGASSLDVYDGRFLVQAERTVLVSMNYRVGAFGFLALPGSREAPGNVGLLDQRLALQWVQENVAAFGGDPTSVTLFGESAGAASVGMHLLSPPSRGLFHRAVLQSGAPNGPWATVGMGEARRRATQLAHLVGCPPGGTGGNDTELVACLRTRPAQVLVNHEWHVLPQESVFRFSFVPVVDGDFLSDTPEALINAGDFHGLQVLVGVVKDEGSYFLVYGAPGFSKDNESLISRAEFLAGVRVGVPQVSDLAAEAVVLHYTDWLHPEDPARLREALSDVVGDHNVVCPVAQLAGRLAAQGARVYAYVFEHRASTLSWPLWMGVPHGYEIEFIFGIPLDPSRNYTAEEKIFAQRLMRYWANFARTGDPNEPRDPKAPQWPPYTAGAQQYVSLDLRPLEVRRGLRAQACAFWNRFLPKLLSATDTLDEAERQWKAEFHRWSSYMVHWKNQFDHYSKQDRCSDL
Kind of assay: biochemical. The conditions noted are these: for inhibition at 10 µM: read-out: hAChE % Inhib. at 10 μM.

For assay [2], the target named is T1, Aβ40. Put plainly: Inhibition of Aβ40 self-aggregation (thioflavin T fluorescence, 2% HFIP). The following applies: for inhibition at 100 µM: read-out: Aβ40 Aggregation Inhibition % at 100 μM.
Method: All the newly prepared compounds were tested in a routine in vitro assay of inhibition of Aβ40 self-aggregation [25].
(§1) All assays were performed in 96-well plates (Greiner Bio-One, Kremsmünster, Austria) using an Infinite M1000 Pro plate reader (Tecan, Cernusco s.N., Italy). Inhibition data were obtained as mean ± SD (for single concentration points) or mean ± SEM from three independent experiments (for IC50s), using Prism (GraphPad Prism version 5.00 for Windows, GraphPad Software, San Diego, CA, USA).
Assay of aggregation of Aβ40 (EzBiolab, Carmel, IN, USA) was performed as described [25], using 2% of 1,1,1,3,3,3-hexafluoro-2-propanol as aggregation enhancer and spectrofluorimetric detection of thioflavin T fluorescence as the probe of amyloid aggregation.
Assay [3] deals with T4, human recombinant monoamine oxidase A (Homo sapiens, UniProt P21397).
T4 construct: purchased Sigma Aldrich; host or cells: baculovirus infected insect cells (microsomes)
T4 sequence (P21397 1-527): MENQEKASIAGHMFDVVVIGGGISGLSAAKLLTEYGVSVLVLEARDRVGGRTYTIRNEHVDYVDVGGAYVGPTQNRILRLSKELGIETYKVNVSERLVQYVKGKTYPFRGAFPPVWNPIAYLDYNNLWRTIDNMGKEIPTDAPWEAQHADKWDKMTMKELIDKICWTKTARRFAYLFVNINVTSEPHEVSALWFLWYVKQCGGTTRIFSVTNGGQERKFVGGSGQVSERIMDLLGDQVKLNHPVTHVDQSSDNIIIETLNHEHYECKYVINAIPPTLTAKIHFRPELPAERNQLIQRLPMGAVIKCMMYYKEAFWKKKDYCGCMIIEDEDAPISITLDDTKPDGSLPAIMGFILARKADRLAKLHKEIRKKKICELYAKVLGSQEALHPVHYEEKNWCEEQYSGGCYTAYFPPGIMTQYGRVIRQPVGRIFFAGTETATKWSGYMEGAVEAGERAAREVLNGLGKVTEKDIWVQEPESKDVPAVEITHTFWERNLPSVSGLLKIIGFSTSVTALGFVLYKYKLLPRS
Put plainly: Inhibition of monoamine oxidase A (kynuramine). Type of assay: biochemical. The conditions noted are these: for inhibition at 10 µM: read-out: hMAO A % Inhib. at 10 μM; for IC50: read-out: hMAO A IC50.
Method: as §1
(§2) Inhibition of human recombinant monoamine oxidases A (250 U/mg) and B (59 U/mg; microsomes from baculovirus infected insect cells; Sigma Aldrich) was determined as already described [48], measuring the fluorescence of 4-hydroxyquinoline produced by the oxidative deamination of substrate kynuramine.

Assay [4] deals with T5, human recombinant monoamine oxidase B (Homo sapiens, UniProt P27338).
T5 construct: purchased Sigma Aldrich; host or cells: baculovirus infected insect cells (microsomes)
T5 sequence (P27338 1-520): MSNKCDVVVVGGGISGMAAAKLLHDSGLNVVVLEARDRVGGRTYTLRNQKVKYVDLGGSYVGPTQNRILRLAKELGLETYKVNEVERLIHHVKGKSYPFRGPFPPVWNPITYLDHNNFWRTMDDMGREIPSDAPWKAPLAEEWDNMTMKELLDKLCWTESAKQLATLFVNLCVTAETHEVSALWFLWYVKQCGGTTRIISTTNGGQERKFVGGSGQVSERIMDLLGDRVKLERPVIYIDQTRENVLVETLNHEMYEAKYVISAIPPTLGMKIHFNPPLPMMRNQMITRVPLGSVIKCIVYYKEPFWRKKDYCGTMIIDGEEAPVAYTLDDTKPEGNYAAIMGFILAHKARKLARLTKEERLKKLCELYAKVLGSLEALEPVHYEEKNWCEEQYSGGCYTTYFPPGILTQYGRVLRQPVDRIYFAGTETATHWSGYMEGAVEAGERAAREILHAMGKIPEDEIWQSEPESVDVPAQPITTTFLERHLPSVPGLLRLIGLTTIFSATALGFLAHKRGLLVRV
Put plainly: Inhibition of monoamine oxidase B (kynuramine). Type of assay: biochemical. The conditions noted are these: for inhibition at 10 µM: read-out: hMAO B % Inhib. at 10 μM; for IC50: read-out: hMAO B IC50.
Method: as §1, §2

Read-outs that look alike come from different tables or passages of the source.

In general, IC50 refers to the concentration at which inhibition is half-maximal.

T1 sequence (P05067 672-711 limits assumed): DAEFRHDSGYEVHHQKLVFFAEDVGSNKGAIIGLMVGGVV
Method for human recombinant AChE: as §1

`COc1ccc2c(c1)/C(=N/Nc1ccccc1)C(=O)N2` [Compound S23]: the “Aβ40 Inhibition % at 100 μM” value on Aβ40 [1] (Table 5) is on record as 52%. Besides, the IC50 at tau protein was 7.7 ± 1 µM.
`CN1C(=O)C(=NNc2cccc(OCc3ccccc3)c2)c2ccccc21` [Compound 7, 3-(2-(3-(Benzyloxy)phenyl)hydrazineylidene)-1-methylindolin-2-one]: the inhibition at 10 µM on human recombinant AChE came to 48 ± 3%; on tau protein, 19 ± 2%; in assay [3], 29 ± 3%; in assay [4], 41 ± 1%. Also, the IC50 against Aβ40 [2] amounted to 2 ± 0.3 µM.
Turning to `O=C1Nc2ccccc2C1=NNc1cccc(OCc2ccccc2)c1` [Compound 6, 3-(2-(3-(Benzyloxy)phenyl)hydrazineylidene)indolin-2-one], the IC50 on human recombinant AChE (read-out: hAChE IC50) came to 4.2 ± 0.8 µM. Further, the inhibition at 10 µM against tau protein was found to be 14 ± 2%; in assay [3] it was 23 ± 5%; in assay [4] it was 22 ± 4%. Moreover, the inhibition at 100 µM on Aβ40 [2] came out at 45 ± 6%.
`COc1ccc2[nH]cc(C=NNc3ccc4ccccc4n3)c2c1` [Compound 35, 2-(2-((5-Methoxy-1H-indol-3-yl)methylene)hydrazineyl)quinoline]: at human recombinant AChE, the inhibition at 10 µM was 38 ± 2%. The IC50 against Aβ40 [2] came out at 12 ± 2 µM; in assay [3], 3.8 ± 0.3 µM; in assay [4], 6.5 ± 0.6 µM.
At tau protein, `O=C1Nc2ccccc2C1=NN=C1C(=O)Nc2ccccc21` [Compound 4] returned an inhibition at 10 µM of 17 ± 2%. Further, the inhibition at 100 µM at Aβ40 [2] came out at 31 ± 3%.
Consider `O=C1Nc2ccc([N+](=O)[O-])cc2/C1=N/Nc1ccccc1` [Compound S22], for which the “Aβ40 Inhibition % at 100 μM” value at Aβ40 [1] (Table 5, symbol) is “-^c (No inhibition at 100 μM concentration)”. Moreover, the “% inhib. @ 100 µM” value on Aβ40 [1] (supplement, training set, 100 µM) is on record as -2±7%. The molecule further came in with an inhibition at 10 µM against tau protein of 15 ± 3%.
With `COc1ccc2c(c1)C(=O)C(=O)N2CCc1ccccc1` [Compound 11], the inhibition at 10 µM turned out to be 47 ± 5% on human recombinant AChE and 20 ± 4% in assay [3]. The IC50 against Aβ40 [2] was 15 ± 1 µM; in assay [4] it was 2.7 ± 0.3 µM.
Regarding `O=C1Nc2ccccc2C1=NNc1cccc2ccccc12` [Compound 23, 3-(2-(Naphthalen-1-yl)hydrazono)indolin-2-one], the inhibition at 10 µM at human recombinant AChE stood at 40 ± 3%. Also, the IC50 came to 4.8 ± 0.5 µM against Aβ40 [2], 7.1 ± 0.3 µM in assay [3] and 5.3 ± 0.3 µM in assay [4].
With `COc1ccc2c(c1)C(=NNc1ccc(C(C)C)cc1)C(=O)N2CCN(C)C` [Compound 18, 1-(2-(Dimethylamino)ethyl)-3-(2-(4-isopropylphenyl)hydrazineylidene)-5-methoxyindolin-2-one], the results for the inhibition at 10 µM (at human recombinant AChE; in assay [3]; in assay [4]) were 23 ± 1%, 31 ± 4% and 47 ± 2%, respectively. In addition, half-maximal inhibition against Aβ40 [2] (IC50) required 1.3 ± 0.1 µM.
Take `COc1ccc2c(c1)/C(=N/Nc1ccc(OCc3ccccc3)cc1)C(=O)N2` [Compound S34]: on Aβ40 [1] (Table 5), the “Aβ40 Inhibition % at 100 μM” value is recorded as 20%. Also, on tau protein, the inhibition at 10 µM is 16 ± 2%.
As to `CC(C)c1ccc(NN=C2C(=O)N(Cc3ccccc3)c3ccc(O)cc32)cc1` [Compound 19, 1-Benzyl-5-hydroxy-3-(2-(4-isopropylphenyl)hydrazineylidene)indolin-2-one], the inhibition at 10 µM at human recombinant AChE worked out at 31 ± 1%; in assay [3] it was 18 ± 4%; in assay [4], 46 ± 5%. The same molecule gave an IC50 against Aβ40 [2] of 1.6 ± 0.3 µM.
As to `Clc1ccc(NN=Cc2c[nH]c3ccccc23)cc1` [Compound 32, 3-((2-(4-Chlorophenyl)hydrazono)methyl)-1H-indole], at human recombinant AChE, the inhibition at 10 µM stood at 41 ± 5%. Moreover, the results for the IC50 (against Aβ40 [2]; in assay [3]; in assay [4]) were 8.4 ± 0.6 µM, 0.34 ± 0.01 µM and 0.23 ± 0.03 µM, respectively.
`COc1ccc2[nH]cc(/C=N/Nc3ccc(Cl)cc3)c2c1` [Compound 33]: on Aβ40 [2], the IC50 came to 22 ± 2 µM.
For the molecule `COc1ccc2c(c1)C(=O)C(=O)N2C1CC1` [Compound 14], the inhibition at 100 µM on Aβ40 [2] amounted to 38 ± 5%.
Regarding `COc1ccc2c(c1)C(=O)C(=O)N2CN1CCOCC1` [Compound 13, 5-Methoxy-1-(morpholinomethyl)indoline-2,3-dione], the inhibition at 10 µM was determined as 26 ± 1% at human recombinant AChE and 7 ± 2% in assay [3]. The inhibition at 100 µM at Aβ40 [2] worked out at 23 ± 5%. The IC50 in assay [4] was determined as 4.4 ± 0.1 µM.
`COc1ccc2c(c1)/C(=N/Nc1cccc(OCc3ccccc3)c1)C(=O)N2` [Compound S35]: at Aβ40 [1] (Table 5), the “Aβ40 Inhibition % at 100 μM” value is recorded as 44%. At tau protein, this molecule displayed an IC50 of 10 ± 2 µM.
Regarding `COc1ccc2[nH]cc(/C=N/NC(=O)c3ccc(F)cc3)c2c1` [Compound 45], the inhibition at 100 µM at Aβ40 [2] came to 0%.
On to `CC(C)c1ccc(NN=Cc2[nH]c3ccc(Br)cc3c2Cl)cc1` [Compound 41, 5-Bromo-3-chloro-2-((2-(4-isopropylphenyl)hydrazineylidene)methyl)-1H-indole], for which the inhibition at 100 µM at Aβ40 [2] was 63 ± 6%.
On to `CC(C)c1ccc(NN=Cc2c[nH]c3ccccc23)cc1` [Compound 28, 3-((2-(4-Isopropylphenyl)hydrazono)methyl)-1H-indole], for which it took 18 ± 2 µM to reach half-maximal inhibition at Aβ40 [2] (IC50).
With `COc1ccc2c(c1)C(=O)C(=O)N2CCCc1ccccc1` [Compound 12], the IC50 on Aβ40 [2] amounted to 19 ± 4 µM.
For `N/N=C1\C(=O)Nc2ccccc21` [Compound 2], the inhibition at 100 µM at Aβ40 [2] was 17 ± 2%.
Molecule `O=C1Nc2ccccc2C1=NNc1ccc2ccccc2c1` [Compound 24, 3-(2-(Naphthalen-2-yl)hydrazono)indolin-2-one] returned an IC50 at Aβ40 [2] of 10 ± 2 µM.
